According to US20140349332A1, “METHOD AND DEVICE FOR EXAMINING MYOCARDIAL TOXICITY AND EVALUATING CARDIOMYOCYTE” (priority 2011, published 2014):

System: cardiomyocyte network
Test: Simultaneous measurement of extracellular potential (FP) and contractile force (optical imaging of probe microparticles) in cardiomyocyte network
Format: cell-based
Excerpt: FIG. 43 is a schematic diagram showing an example of a system configuration of the present invention to simultaneously measure the mechanical properties and electrical properties of cardiomyocytes. The present system includes (1) a cellular network chip that can be used for culturing a cell population, includes a plurality of micro-electrodes disposed on a substrate and can be used for acquiring cellular potential data of a small area of the population; (2) a chip mounter for mounting the chip and joining electrically with cell-stimulating and/or cellular potential measuring system; (3) an environmental control vessel which can be used to control the environment such as temperature, humidity, oxygen concentration and carbon dioxide concentration of the cell population being cultured; (4) a micro multi-electrode potential measurement system that can give stimulation to a specific cell of a cardiomyocyte population, and allows simultaneous continuous measurements of cellular potentials of various small areas in the cell population; (5) one or more position-coordinate probe microparticles configured to measure changes in shape of myocardial cells and allow easy identification of cardiomyocytes using a plastic, polymer, glass or metal microparticles such as polystyrene microparticles, glass microparticles or gold microparticles of sizes from at minimum about 0.1, 0.2 μm, 0.3 μm, 0.4 μm, 0.5 μm, 0.6 μm, 0.7 μm, or preferably about 0.8 μm, more preferably about 0.9 μm, or most preferably about 1 μm, to at most about 500 μm, 400 μm, 300 μm, preferably about 200 μm, more preferably about 100 μm or most preferably about 50 μm, wherein the particles are disposed in the cell population by mixing them on the surface of the cardiomyocyte population in the cell network chip or in the cell population and culturing them; (6) an optical image capturing system for optically measuring the microparticles, wherein the system includes a light source, an optical microscope and an image-capturing camera to capture the images of the microparticles; and (7) a computer system for image analysis, cellular potential analysis, stimulus control and/or integrated data acquisition, wherein the system is capable of measurements of cellular potential and analysis of waveforms of the potential, measurements of cell displacements by image analysis and feedback stimulation based on the analysis results. In the measurements using the device system, as for the stimulus to cause depolarization of the myocardial cells, the stimulus can be provided by selecting mainly from three means, i.e., (A) measurements using conduction of autonomous pulsation of the cardiomyocyte population, (B) measurements of conduction by providing a forced electrical stimulation from outside to a specific cell in the cardiomyocyte population and (C) measurements of conduction by providing a feed-back stimulus at a specific timing to meet the relationship of the delay time and the value of the cellular potential based on the cell voltage measured data to the specific cells in the cardiomyocyte population.
FIG. 44 is an example of a data acquisition monitor screen showing an example of data obtained from an example of a system configuration of the present invention to simultaneously measure the mechanical properties and the electrical properties of cardiomyocytes. In a setting of this example, a large number of polystyrene microparticles are placed on the surface of the cardiomyocyte population, a probe-particle displacement-observation window for five of the polystyrene microparticles selected as probes is set, and the center of gravity of the window moves with the movement of the microparticles in the window, thereby displacement of the particular probe microparticles can be measured continuously as a change in vector time in the directions of the X-axis and Y-axis. […]

[1] = drug concentration of 100 nM, FIG. 52B

Question: What does the source list for `COc1ccc(CCN(C)CCCC(C#N)(c2ccc(OC)c(OC)c2)C(C)C)cc1OC` (stereo not drawn) [verapamil]?
Answer: electrophysiological excitation (1000 nM, FIG. 52A): does not occur; mechanical contraction (1000 nM, FIG. 52A): mechanical contraction does not occur; angle fluctuation against decrease in contractile force (administration of 10 nM, FIG. 54B): barely increases; fluctuation of contractile direction in the angular direction (administration of 100 nM, FIG. 54B): rapid fluctuation; contractile force [1]: disappear rapidly; electrical firing of excitatory conduction of cells [1]: maintained
